Source: US12180174B2, “A2-73 crystalline polymorph compositions of matter and methods of use thereof” (ANAVEX LIFE SCIENCES CORP., priority 2018, dated 2024)

Tests used:
HeLa cells = experiment: LC3-II autophagic flux, Western blot with Bafilomycin A1; assay type: cell-based, human; conditions: BafiA1 2 μM, vs control
Description: To study the effect of ANAVEX2-73 on autophagy, human HeLa cells were treated with the compound and autophagic activity was analyzed by investigating the flux of LC3-II. LC3-II is the lipidated form of LC3, which (partially) stays attached to autophagosomes and thus, gets degraded by lysosomes. Therefore, the quantification of the LC3-II flux, using Bafilomycin AI (BafiAi; 2 μM) for inhibition of lysosomal degradation, directly corresponds to cellular autophagic activity. […] There is a concentration-dependent and significant increase in the autophagic-flux following application of ANAVEX2-73: an increase of over 2-fold at 10 μM and over 1.5-fold at 1 μM ANAVEX2-73 (FIG. 35A). As standard positive control to provoke the induction of autophagy, HeLa cells were incubated with EBSS, which resembles nutrient deprivation as autophagy stimulus.
(§1) Cell culture and microscopy. HeLa and HEK293A cells were cultured in DMEM (Invitrogen, Carlsbad, CA, USA, 41965062) supplemented with active FBS (Life Technologies GmbH, Carlsbad, CA, USA, 10270106), 1×ABAM (Invitrogen, 15240-062) and 1 mM sodium pyruvate (Invitrogen, 1136-088). After medium change, the cells were treated for 2 h with 10, 1, and 0.1 μM ANAVEX2-73 and PRE-084 (Tocris, Bristol, UK, 0589), respectively; ANAVEX2-73 was provided by ANAVEX Life Sciences Corp, New York, NY, USA. Afterwards Bafilomycin A1 (Bafi.Ai; 2 μM) (Toronto Research Chemicals, North York, ON, Canada, B110000) or DMSO was added for a further 2 h and the cells were eventually harvested. Western blot analyses were performed as described previously. Briefly, cells were subjected to SDS-PAGE using precast NuPAGE 4%-12% Bis-Tris gels (Invitrogen, NP0322). Proteins were detected by chemiluminescence using the Amersham Imager 600 (GE). Confocal fluorescence microscopical analyses of HEK293A cells stably expressing GFP-LC3B were performed with the laser scanning microscope LSM 710 (Zeiss, Oberkochen).

[1] = tested on: HEK293 cells stably expressing a GFP-LC3B reporter construct; experiment: GFP-LC3B puncta, confocal fluorescence microscopy; assay type: cell-based, human; conditions: 1 μM, BafiA1
Description: Next, the Western blot experiments were complemented by direct visualization of the extent of autophagosome appearance in HEK293 cells. To do so, ANAVEX2-73 (1 μM) was applied to HEK293 cells stably expressing a GFP-LC3B reporter construct. This cell model allows direct monitoring of the accumulation of LC3-I I-positive autophagosomal structures upon BafiAi supplementation by confocal fluorescence microscopy.
as §1, with “Afterwards Bafilomycin A1 (Bafi.Ai; 2 μM) (Toronto Research Chemicals, North York, ON, Canada, B110000) or DMSO was added for a further 2 h and the cells were eventually harvested. Western blot analyses were performed as described previously. Briefly, cells were subjected to SDS-PAGE using precast NuPAGE 4%-12% Bis-Tris gels (Invitrogen, NP0322).” left out
Confocal fluorescence microscopical analyses of HEK293A cells stably expressing GFP-LC3B were performed with the laser scanning microscope LSM 710 (Zeiss, Oberkochen).

ULK1 = ULK1 serine 555 phosphorylation, Western blot; assay type: cell-based, human; conditions: 1 μM; HeLa cells
Description: Activation of the serine/threonine protein kinase ULK1 (unc-51-like kinase 1) via phosphorylation at serine 555 indicates stimulation of the canonical autophagy pathway. […] It has to be mentioned that this activating ULK1 phosphorylation can be inhibited by mTOR as well as stimulated via AMPK kinase. Both are basal physiological sensors of nutritional conditions and key signal transducers of canonical autophagy stimulation. ULK1 is in fact the signal mediating the induction of the formation of the phagophore during the autophagy process and, therefore, a central promoter of autophagy. ULK1 itself functions in a complex with at least three protein partners: FI P200 (focal adhesion kinase family interacting protein of 200 kDa), ATG (autophagy-related protein) 13 (ATG13), and ATG101.
Cell culture and microscopy. HeLa and HEK293A cells were cultured in DMEM (Invitrogen, Carlsbad, CA, USA, 41965062) supplemented with active FBS (Life Technologies GmbH, Carlsbad, CA, USA, 10270106), 1×ABAM (Invitrogen, 15240-062) and 1 mM sodium pyruvate (Invitrogen, 1136-088). […] Proteins were detected by chemiluminescence using the Amersham Imager 600 (GE). Confocal fluorescence microscopical analyses of HEK293A cells stably expressing GFP-LC3B were performed with the laser scanning microscope LSM 710 (Zeiss, Oberkochen).

[2] = tested on: human A[342-expressing worms; experiment: Thioflavine staining of Abeta42 aggregates in worms; assay type: in vivo, C. elegans; conditions: 80 μM, nine consecutive days; vs M9 medium control
Description: (§2) This encouraged the inventors to further look into the functional consequences of autophagy induction, focusing on the impact of the degradative pathway on proteostasis in vivo. Therefore, human A[342-expressing worms characterized by a time-dependent paralysis were employed, due to the accumulation of A[342 oligomers and high molecular weight aggregates in body wall muscle cells; it is stressed here that A[342-expressing worms are not considered as a model for AD, but rather as an experimental model for general proteostasis stress and proteotoxicity, where protein aggregation in muscle cells leads do a clear-cut phenotype (here, paralysis). A1342 protein aggregates were stained in situ with thioflavine. […] The accumulation of A[342 aggregates in the muscle cells is known to lead to an enhanced paralysis of the worms over time. […] C. elegans were treated with the compound (or M9 buffer as control) up to 12 days and paralysis was quantified daily. […]
(§3) For analysis of paralysis rate, synchronous CL2006 nematodes were cultivated at 15° C. on plates seeded with HB101 E. coli re-suspended in M9 (control) or 100 μM and 50 μM ANAVEX2-73. […] Worms were mounted on 2% agar pads on a glass slide and confocal fluorescence microscopical analyses were performed with the LSM 710 (Zeiss, Oberkochen) laser scanning microscope.

[3] = tested on: human A[342-expressing worms; experiment: Abeta42-induced paralysis of worms; assay type: in vivo, C. elegans; conditions: up to 12 days, quantified daily, vs M9 buffer
Description: as §2, §3

Sig-1 R = Sig-1 R (Homo sapiens, UniProt Q99720); conditions: cited from earlier work
Chain of Sig-1 R (Q99720 whole entry, species assumed): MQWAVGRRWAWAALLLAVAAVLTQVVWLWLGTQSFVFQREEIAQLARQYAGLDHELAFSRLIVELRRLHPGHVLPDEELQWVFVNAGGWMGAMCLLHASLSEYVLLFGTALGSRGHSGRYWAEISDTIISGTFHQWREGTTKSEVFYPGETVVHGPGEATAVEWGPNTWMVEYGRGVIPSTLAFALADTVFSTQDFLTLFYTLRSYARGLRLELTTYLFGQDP

muscarinic receptor = conditions: cited from earlier work

In the case of CN(C)CC1CCOC1(c1ccccc1)c1ccccc1.Cl (stereo not drawn) [ANAVEX2-73, tetrahydro-N,N-dimethyl-2,2-diphenyl-3-furanmethanamine hydrochloride], the “increase in autophagic flux (LC3-II)” value (HeLa cells; 1 μM) was “over 1.5 fold”, the “increase in autophagic flux (LC3-II)” value (HeLa cells; 10 μM) was “over 2 fold” and the “LC3-II-positive puncta and autophagic flux” value [1] was “overall increased number of LC3-II-positive puncta and autophagic flux”. For the same compound, the “ULK1 serine 555 phosphorylation” value (ULK1) was “up to 2 fold”, the “number of thioflavine-positive A[342 aggregates” value [2] was “reduced the number of thioflavine-positive A[342 aggregates” and the paralysis ([3]; 50 NM) was “clear reduction in paralysis”. For the same compound, the paralysis ([3]; 100 NM) was “clear reduction in paralysis”, the “affinity for Sig-1 R” value (Sig-1 R) was “low micromolar range” and the “affinity for muscarinic receptor” value (muscarinic receptor) was “low micromolar range”.
